Tests used:
α-enolase (ENO1) [1] = molecular target: T1, α-enolase (ENO1) (Homo sapiens, UniProt P06733, K330E); assay: PKM1-coupled luminescent Kinase-Glo assay; type: biochemical
α-enolase (ENO1) [2] = molecular target: T2, α-enolase (ENO1) (Homo sapiens, UniProt P06733); assay: SPR; type: binding
α-enolase (ENO1) [3] = molecular target: T1, α-enolase (ENO1); assay: SPR; type: binding
α-enolase (ENO1) [4] = molecular target: T2, α-enolase (ENO1); assay: PKM1-coupled luminescent Kinase-Glo assay; type: biochemical
PKM2 = PKM2 (Homo sapiens, UniProt P14618); assay: SPR; type: binding
PKM2, sequence (P14618 2-531): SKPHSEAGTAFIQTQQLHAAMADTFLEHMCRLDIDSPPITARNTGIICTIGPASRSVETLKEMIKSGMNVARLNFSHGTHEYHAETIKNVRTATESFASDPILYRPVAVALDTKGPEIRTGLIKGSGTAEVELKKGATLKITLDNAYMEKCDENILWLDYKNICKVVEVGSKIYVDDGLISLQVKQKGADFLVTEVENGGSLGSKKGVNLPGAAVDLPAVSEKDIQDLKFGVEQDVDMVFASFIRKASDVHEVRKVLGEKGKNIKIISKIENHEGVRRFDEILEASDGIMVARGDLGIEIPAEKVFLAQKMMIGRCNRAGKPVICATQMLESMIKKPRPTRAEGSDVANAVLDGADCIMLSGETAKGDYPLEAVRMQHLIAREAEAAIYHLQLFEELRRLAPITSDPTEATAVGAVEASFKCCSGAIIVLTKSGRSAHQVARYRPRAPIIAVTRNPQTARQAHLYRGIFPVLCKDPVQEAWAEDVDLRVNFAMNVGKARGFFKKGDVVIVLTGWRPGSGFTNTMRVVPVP

TRIM28 = TRIM28 (Homo sapiens, UniProt Q13263); assay: SPR; type: binding
TRIM28, sequence (Q13263 whole entry): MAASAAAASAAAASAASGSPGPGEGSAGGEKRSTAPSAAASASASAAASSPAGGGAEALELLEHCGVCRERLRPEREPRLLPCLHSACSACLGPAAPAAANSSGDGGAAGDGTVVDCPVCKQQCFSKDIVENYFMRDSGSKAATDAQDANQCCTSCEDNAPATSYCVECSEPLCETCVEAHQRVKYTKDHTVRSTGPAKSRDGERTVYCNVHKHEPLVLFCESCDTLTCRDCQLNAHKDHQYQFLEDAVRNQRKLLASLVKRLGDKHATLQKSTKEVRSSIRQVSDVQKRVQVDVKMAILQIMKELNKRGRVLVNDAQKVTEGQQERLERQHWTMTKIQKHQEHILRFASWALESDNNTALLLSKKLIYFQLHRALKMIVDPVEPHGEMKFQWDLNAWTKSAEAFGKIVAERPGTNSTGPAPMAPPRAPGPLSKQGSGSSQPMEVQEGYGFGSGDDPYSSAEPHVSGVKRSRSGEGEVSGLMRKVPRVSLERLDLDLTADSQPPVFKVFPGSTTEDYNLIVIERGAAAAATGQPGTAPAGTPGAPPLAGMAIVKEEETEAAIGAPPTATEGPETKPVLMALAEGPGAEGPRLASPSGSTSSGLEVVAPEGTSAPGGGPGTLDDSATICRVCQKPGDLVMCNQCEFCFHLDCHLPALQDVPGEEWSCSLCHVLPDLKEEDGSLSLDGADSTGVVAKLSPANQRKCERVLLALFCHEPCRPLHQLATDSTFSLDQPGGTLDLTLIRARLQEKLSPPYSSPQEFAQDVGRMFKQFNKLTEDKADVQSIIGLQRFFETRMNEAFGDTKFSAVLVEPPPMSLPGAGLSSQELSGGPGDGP

GAPDH = GAPDH (Homo sapiens, UniProt P04406); assay: NADH absorbance at […] nm; type: biochemical; details: activator, allosteric suggested; 1 mM NAD+, 2.88 mM G3P, 20 mM arsenate, pH 8.5
GAPDH, sequence (P04406 2-335): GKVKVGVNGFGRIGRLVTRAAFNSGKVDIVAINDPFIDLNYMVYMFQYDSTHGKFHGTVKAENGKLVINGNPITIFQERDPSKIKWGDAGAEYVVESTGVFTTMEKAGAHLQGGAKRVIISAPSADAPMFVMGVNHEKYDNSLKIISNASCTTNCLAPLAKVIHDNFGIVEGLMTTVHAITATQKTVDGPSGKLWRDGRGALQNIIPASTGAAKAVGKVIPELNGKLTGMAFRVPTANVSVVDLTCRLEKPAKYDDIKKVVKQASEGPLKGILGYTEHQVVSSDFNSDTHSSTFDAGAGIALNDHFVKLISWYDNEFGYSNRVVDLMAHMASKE

T1 sequence (P06733 whole entry K330E): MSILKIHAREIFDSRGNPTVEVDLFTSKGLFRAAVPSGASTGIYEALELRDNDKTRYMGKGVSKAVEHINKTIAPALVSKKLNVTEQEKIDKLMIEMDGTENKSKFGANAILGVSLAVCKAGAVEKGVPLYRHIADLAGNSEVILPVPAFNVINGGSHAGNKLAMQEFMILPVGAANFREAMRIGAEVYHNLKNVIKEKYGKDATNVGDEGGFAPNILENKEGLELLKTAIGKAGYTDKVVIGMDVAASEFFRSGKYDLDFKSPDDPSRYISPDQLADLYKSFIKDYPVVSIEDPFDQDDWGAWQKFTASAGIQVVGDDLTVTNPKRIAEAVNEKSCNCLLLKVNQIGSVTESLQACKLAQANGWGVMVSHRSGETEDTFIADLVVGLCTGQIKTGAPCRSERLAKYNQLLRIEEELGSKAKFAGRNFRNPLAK
T2 sequence (P06733 whole entry): as the sequence (P06733 whole entry K330E) above, with E330K counted along it

O=CC(O)COP(=O)(O)O (racemic) [G3P]
IC50 (α-enolase (ENO1) [1]): 1.17 mM | Kd (α-enolase (ENO1) [2]): 25.4 nM | Kd (α-enolase (ENO1) [3]): 10.3 µM | IC50 (α-enolase (ENO1) [4]): 113 µM

O=C(O)[C@H](O)COP(=O)(O)O [3PG]
Kd (PKM2): 260 nM

C[C@H](O)C(=O)O [lactate]
Kd (TRIM28): 41.2 nM

CC(=O)C(=O)O [pyruvate]
NADH absorbance at 340 nm (GAPDH): pyruvate can bind to and activate GAPDH
